Tests used:
[1] = target: T1, DOCK1 (DHR-2 domain) (Homo sapiens, UniProt Q14185); test: In vitro GEF assay: Rac activation by DOCK1 DHR-2 domain; format: biochemical, mice and humans; details: in words; for selective inhibitory activity against DOCK1 versus DOCK2: GEF assay DOCK1 vs DOCK2 DHR-2 domain
T1 construct: polypeptide fragments corresponding to the DHR-2 domain of DOCK1 or DOCK2 from mice and humans; Histidine-SUMO (N); made in house; host or cells: E. coli Arctic express (DE3)
T1 sequence (Q14185 1207-1617 limits assumed): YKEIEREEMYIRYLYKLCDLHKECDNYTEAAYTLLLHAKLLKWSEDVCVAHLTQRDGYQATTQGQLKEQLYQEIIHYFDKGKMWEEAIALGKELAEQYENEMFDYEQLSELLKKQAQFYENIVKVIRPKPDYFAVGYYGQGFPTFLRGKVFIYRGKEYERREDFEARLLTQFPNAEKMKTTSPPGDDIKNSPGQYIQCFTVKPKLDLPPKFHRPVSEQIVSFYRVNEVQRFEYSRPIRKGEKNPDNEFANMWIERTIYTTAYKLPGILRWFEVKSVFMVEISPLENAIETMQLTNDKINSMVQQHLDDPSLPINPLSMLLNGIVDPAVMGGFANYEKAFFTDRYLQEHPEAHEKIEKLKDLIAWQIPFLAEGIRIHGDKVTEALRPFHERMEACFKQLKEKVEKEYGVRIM
Description: DOCK1 and DOCK2, i.e., DOCK-A subfamily members, both activate Rac by catalyzing the GTP-GDP exchange reaction for Rac via their DHR-2 domains. Therefore, in this Pharmacological Test, the inhibitory effect of the compounds of the present invention on Rac activation by DOCK1 or DOCK2 was assessed in an in vitro GEF assay by using polypeptide fragments corresponding to the DHR-2 domain of DOCK1 or DOCK2 from mice and humans. The in vitro GEF assay was performed using a labeled GTP (Bodipy-FL-GTP, Invitrogen), which has a property of increasing the fluorescence intensity when bound to Rac.
The polypeptide fragments corresponding to the DHR-2 domain of DOCK1 or DOCK2 were prepared by expression in E. coli Arctic express (DE3) cells as N-terminal. Histidine-SUMO tag-fused recombinant proteins, followed by purification by affinity column chromatography on nickel-NTA columns.
Rac was prepared by expression in E. coli BL21 (DE3) cells as an N-terminal GST tag-fused recombinant protein, followed by purification by affinity column chromatography on glutathione-Sepharose columns.
Each of the polypeptide fragments corresponding to the DHR-2 domain of DOCK1 or DOCK2, and a predetermined concentration of each test compound (the compounds of the present invention: 33 types of compounds; and comparative compound: TBOPP) dissolved in DMSO were incubated in a reaction solution A (pH 7.0), which contained 20 mM of MES-NaOH, 150 mM of NaCl, 10 mM of MgCl2, and 20 μM of GDP for 20 minutes at room temperature while being shielded from light to thus prepare GEF pretreated products. The final concentration of DMSO was adjusted to 1 mass % in all of the test samples. For a control test, a GEF pretreated product (control) was prepared by incubation in the same manner using DMSO with no test compounds, instead of the DMSO used above in which each test compound was dissolved.
Separately, Rac was added to the reaction solution A (pH 7.0) to a concentration of 15 μM, and was allowed to stand on for 30 min to form a GDP-Rac complex. Bodipy-FL-GTP was added to a concentration of 3.6 μM to 100 μL of the reaction solution A that contained the thus-prepared GDP-Rac complex, and equilibrated at 30° C. for 2 minutes. After equilibration, 50 μL of the GEF pretreated product prepared as described above was added and reacted at 30° C.
Changes in fluorescence intensity of Bodipy-FL-GTP in the reaction solutions were monitored using an EnSpire spectrofluorometer (Perkin Elmer) (excitation wavelength: 488 nm, fluorescence wavelength: 514 nm). The measured values were corrected so that the fluorescence intensity at the beginning of the reaction (0 sec) was 0. Then, an approximate curve (hyperbola) was obtained by plotting the calculated correction values on the y-axis and the time (t) on the x-axis using GraphPad Prism5 (GraphPad software), and the slope at t=0 to 10 seconds was defined as the initial velocity of the guanine nucleotide exchange reaction. The IC50 value was calculated taking the initial reaction velocity of the control, to which only a solvent (DMSO) was added, as 100%.
Based on the obtained results, columns A and B of FIG. 1, FIG. 2, FIG. 3-1, and FIG. 3-2 show the results evaluating the inhibitory effect on Rac activation by DOCK1 (DHR-2 domain) (IC50 value), and DOCK1-selective inhibitory effect (DOCK1/DOCK2 selectivity) of each test compound. The inhibitory effect on Rac activation by DOCK1 (DHR-2 domain) (IC50 value) was determined from the reaction inhibition curve plotted using values of Rac activation by the DOCK1 DHR-2 domain in the presence of various concentrations of the test compounds, taking the values of the control as 100%. […]

[2] = test system: mouse lung carcinoma cell line (3LL cells); test: Cell invasion inhibition assay (Matrigel invasion chamber); format: cell-based; details: in words
Description: In this Pharmacological Test, the inhibitory effect of each test compound on cell invasion response was evaluated using a mouse lung carcinoma cell line (3LL cells), a mouse pancreatic cancer cell line (PANC02 cells), and a human breast cancer cell line (MDA-MB-157 cells). Of these, the mouse lung carcinoma cell line (3LL) is a cancer cell line with mutant Ras (K-Ras (G12C)), and the human breast cancer cell line (MDA-MB-157) is a cancer cell line with mutant Rac (Rac1 (P29S)). The experiments were performed in BD BioCoat Matrigel invasion chambers (BD Biosciences).
Specifically, an upper chamber with a Matrigel-coated membrane insert (8 μm pores) at the bottom was equilibrated with DMEM (serum-free medium) for 120 minutes. Thereafter, 300 μL of a suspension of a cancer cell line in DMEM (serum-free) was placed in the upper chamber while 500 μL of DMEM (with 10 mass % FCS) was placed in the lower chamber. Each test compound dissolved in DMSO at a predetermined concentration was added to both the culture media in the upper and lower chambers. As a control, DMSO alone was added to both the culture media in the upper and lower chambers. In all of the experiments, the final DMSO concentration in the culture media was adjusted to 0.2 mass %.
The resulting products were cultured under 5% CO2 at 37° C. for 22 hours (3LL and PANC02 cells) or 48 hours (MDA-MB-157 cells). Then, the upper chamber was removed, and the culture medium was removed. Thereafter, non-invading cells remaining in the upper chamber were removed using a cotton swab, and the cells remaining outside the bottom of the upper chamber (cells that had invaded into the Matrigel, and passed through the membrane insert) were stained with Diff-Quick (Sysmex). After staining, the membrane inserts with Matrigel were cut out using a scalpel to prepare slides, and the number of invading cells was counted under an optical microscope.
The results were evaluated based on percent cell invasion (%: Invasion) and percent inhibition (%: Inhibition). The percent cell invasion was obtained by converting the number of invading cells in the presence of each test compound into a percentage, taking the number of invading cells in the control test, in which DMSO was added alone, as 100%; and the percent inhibition was obtained by deducting the percent cell invasion from 100.

| Structure (SMILES) | selective inhibitory activity against DOCK1 versus DOCK2 [1] | percent cell invasion inhibition compared with TBOPP [2] | DOCK1-inhibiting activity compared with TBOPP ([1]; GEF assay) | selective inhibitory activity against DOCK1 compared to TBOPP ([1]; GEF assay) |
| --- | --- | --- | --- | --- |
| COC(=O)c1cc(S(=O)(=O)N2CCCC2)cn1CC(O)c1ccc(-c2cccc(C(F)(F)F)c2)cc1 (stereo not shown) [HS-6, methyl 1-(2-hydroxy-2-(3′-(trifluoromethyl)-[1,1′-biphenyl]-4-yl)ethyl)-4-(pyrrolidin-1-yl-sulfonyl)-1H-pyrrole-2-carboxylate] | higher selective inhibitory activity against DOCK1 than against DOCK2 | higher percent cell invasion inhibition than TBOPP | – | – |
| CC(=O)c1cc(S(=O)(=O)N2CCCC2)cn1CC(=O)c1ccc(-c2cccc(C(F)(F)F)c2)cc1 [HS-16, 2-(2-acetyl-4-(pyrrolidin-1-yl-sulfonyl)-1H-pyrrol-1-yl)-1-(3′-(trifluoromethyl)-[1,1′-biphenyl]-4-yl)ethane-1-one] | higher selective inhibitory activity against DOCK1 than against DOCK2 | higher percent cell invasion inhibition than TBOPP | – | – |
| Cc1cc(-c2ccc(C(=O)Cn3cc(S(=O)(=O)N4CCCC4)ccc3=O)cc2)ccc1N(C)C [KS-16, 1-(2-(4′-(dimethylamino)-3′-methyl-[1,1′-biphenyl]-4-yl)-2-oxoethyl)-5-(pyrrolidin-1-yl-sulfonyl)pyridin-2(1H)-one] | – | higher percent cell invasion inhibition than TBOPP | – | – |
| O=C(Cn1cc(S(=O)(=O)N2CCCC2)ccc1=O)c1ccc(-c2ccc3cccnc3c2)cc1 [KS-18, 1-(2-oxo-2-(4-(quinolin-7-yl)phenyl)ethyl)-5-(pyrrolidin-1-yl-sulfonyl)pyridin-2(1H)-one] | – | higher percent cell invasion inhibition than TBOPP | – | – |
| O=C(Cn1cc(S(=O)(=O)N2CCCC2)ccc1=O)c1ccc(-c2cccc(SC(F)(F)F)c2)cc1 [KS-21, 1-(2-oxo-2-(3′-((trifluoromethyl)thio)-[1,1′-biphenyl]-4-yl)ethyl)-5-(pyrrolidin-1-yl-sulfonyl)pyridin-2(1H)-one] | – | higher percent cell invasion inhibition than TBOPP | – | – |
| O=C(Cn1cc(S(=O)(=O)N2CCCC2)ccc1=O)c1ccc(-c2cccc(C(F)(F)F)n2)cc1 [KS-22, 1-(2-oxo-2-(4-(6-(trifluoromethyl)pyridin-2-yl)phenyl)ethyl)-5-(pyrrolidin-1-yl-sulfonyl)pyridin-2(1H)-one] | – | higher percent cell invasion inhibition than TBOPP | – | – |
| O=C(Cn1cc(S(=O)(=O)N2CCCC2)ccc1=O)c1ccc(-c2ccc3ncccc3c2)cc1 [KS-23, 1-(2-oxo-2-(4-(quinolin-6-yl)phenyl)ethyl)-5-(pyrrolidin-1-yl-sulfonyl)pyridin-2(1H)-one] | – | higher percent cell invasion inhibition than TBOPP | – | – |
| O=C(Cn1cc(S(=O)(=O)N2CCC(c3ccc(-c4cc(F)c(F)c(F)c4)cc3)CC2)ccc1=O)c1ccc(-c2cc(F)c(F)c(F)c2)cc1 [KS-59, 1-(2-oxo-2-(3′,4′,5′-trifluoro-[1,1′-biphenyl]-4-yl)ethyl)-5-((4-(3′,4′,5′-trifluoro-[1,1′-biphenyl]-4-yl)piperidin-1-yl)sulfonyl)pyridin-2(1H)-one] | higher selective inhibitory activity against DOCK1 than against DOCK2 | higher than those of TBOPP | higher than those of TBOPP | higher than those of TBOPP |
| Nc1cc(S(=O)(=O)N2CCCC2)cn(CC(=O)c2ccc(-c3cccc(C(F)(F)F)c3)cc2)c1=O [RT-13, 3-amino-1-(2-oxo-2-(3′-(trifluoromethyl)-[1,1′-biphenyl]-4-yl)ethyl)-5-(pyrrolidin-1-yl-sulfonyl)pyridin-2(1H)-one] | – | higher percent cell invasion inhibition than TBOPP | – | – |
| O=C(Cn1cc(S(=O)(=O)N2CCCC2)cc1-c1ncco1)c1ccc(-c2cccc(C(F)(F)F)c2)cc1 [RT-58, 2-(2-(oxazol-2-yl)-4-(pyrrolidin-1-yl-sulfonyl)-1H-pyrrol-1-yl)-1-(3′-(trifluoromethyl)-[1,1′-biphenyl]-4-yl)ethan-1-one] | higher selective inhibitory activity against DOCK1 than against DOCK2 | higher percent cell invasion inhibition than TBOPP | – | – |
